≈ marks a conversion by molar mass, not a printed value.
Key:
[1] = tested on: Candida albicans; test: Tested for minimum fungicidal concentration (MFC) against Candida albicans (MY 1055); assay type: functional
[2] = organism: Mus musculus; test: […] anti-candida activity expressed as ED99.9 in a mouse model of disseminated candidiasis (TOKA); assay type: functional
[3] = organism: Mus musculus; test: Percentage of mice with complete eradication of candida in kidneys; assay type: functional, Kidney
[4] = target: 1,3-beta-glucan synthase (Candida glabrata, UniProt F5BCZ9); test: Inhibition of 1,3-beta-glucan synthase; design: species or system Candida glabrata CBS 138
[5] = Acute toxicity in mice after intravenous administration; conditions: mouse, in vivo
[6] = tested on: Mus musculus; test: In vivo effective intraperitoneal dose to achieve least 50% survival in a mouse model of disseminated aspergillosis; assay type: functional; conditions: ip
[7] = tested on: Nakaseomyces glabratus; test: Tested for in vitro minimum fungicidal concentration (MFC) against C. glabrata; 0.5-1; assay type: functional
[8] = tested on: Candida parapsilosis; test: Tested for in vitro minimum fungicidal concentration (MFC) against C. parapsilosis; 0.25-1; assay type: functional
[9] = tested on: Meyerozyma guilliermondii; test: Tested for in vitro minimum fungicidal concentration (MFC) against C. guilliermondii; 0.5-4; assay type: functional
[10] = tested on: Pichia kudriavzevii; test: Tested for in vitro minimum fungicidal concentration (MFC) against C. krusei; 1-2; assay type: functional
[11] = tested on: Cryptococcus neoformans; test: Tested for in vitro minimum fungicidal concentration (MFC) against C. neoformans; 8-32; assay type: functional
[12] = tested on: Clavispora lusitaniae; test: Tested for in vitro minimum fungicidal concentration (MFC) against C. lusitaniae; 0.06-0.5; assay type: functional
[13] = tested on: Kluyveromyces marxianus; test: Tested for in vitro minimum fungicidal concentration (MFC) against C. pseudotropicalis; 0.06-0.5; assay type: functional
[14] = tested on: Candida tropicalis; test: Tested for in vitro minimum fungicidal concentration (MFC) against C. tropicalis; 0.06-1; assay type: functional
[15] = tested on: Candida albicans; test: Tested for in vitro minimum fungicidal concentration (MFC) against C. albicans; 0.03-0.5; assay type: functional

1,3-beta-glucan synthase, sequence (F5BCZ9 whole entry): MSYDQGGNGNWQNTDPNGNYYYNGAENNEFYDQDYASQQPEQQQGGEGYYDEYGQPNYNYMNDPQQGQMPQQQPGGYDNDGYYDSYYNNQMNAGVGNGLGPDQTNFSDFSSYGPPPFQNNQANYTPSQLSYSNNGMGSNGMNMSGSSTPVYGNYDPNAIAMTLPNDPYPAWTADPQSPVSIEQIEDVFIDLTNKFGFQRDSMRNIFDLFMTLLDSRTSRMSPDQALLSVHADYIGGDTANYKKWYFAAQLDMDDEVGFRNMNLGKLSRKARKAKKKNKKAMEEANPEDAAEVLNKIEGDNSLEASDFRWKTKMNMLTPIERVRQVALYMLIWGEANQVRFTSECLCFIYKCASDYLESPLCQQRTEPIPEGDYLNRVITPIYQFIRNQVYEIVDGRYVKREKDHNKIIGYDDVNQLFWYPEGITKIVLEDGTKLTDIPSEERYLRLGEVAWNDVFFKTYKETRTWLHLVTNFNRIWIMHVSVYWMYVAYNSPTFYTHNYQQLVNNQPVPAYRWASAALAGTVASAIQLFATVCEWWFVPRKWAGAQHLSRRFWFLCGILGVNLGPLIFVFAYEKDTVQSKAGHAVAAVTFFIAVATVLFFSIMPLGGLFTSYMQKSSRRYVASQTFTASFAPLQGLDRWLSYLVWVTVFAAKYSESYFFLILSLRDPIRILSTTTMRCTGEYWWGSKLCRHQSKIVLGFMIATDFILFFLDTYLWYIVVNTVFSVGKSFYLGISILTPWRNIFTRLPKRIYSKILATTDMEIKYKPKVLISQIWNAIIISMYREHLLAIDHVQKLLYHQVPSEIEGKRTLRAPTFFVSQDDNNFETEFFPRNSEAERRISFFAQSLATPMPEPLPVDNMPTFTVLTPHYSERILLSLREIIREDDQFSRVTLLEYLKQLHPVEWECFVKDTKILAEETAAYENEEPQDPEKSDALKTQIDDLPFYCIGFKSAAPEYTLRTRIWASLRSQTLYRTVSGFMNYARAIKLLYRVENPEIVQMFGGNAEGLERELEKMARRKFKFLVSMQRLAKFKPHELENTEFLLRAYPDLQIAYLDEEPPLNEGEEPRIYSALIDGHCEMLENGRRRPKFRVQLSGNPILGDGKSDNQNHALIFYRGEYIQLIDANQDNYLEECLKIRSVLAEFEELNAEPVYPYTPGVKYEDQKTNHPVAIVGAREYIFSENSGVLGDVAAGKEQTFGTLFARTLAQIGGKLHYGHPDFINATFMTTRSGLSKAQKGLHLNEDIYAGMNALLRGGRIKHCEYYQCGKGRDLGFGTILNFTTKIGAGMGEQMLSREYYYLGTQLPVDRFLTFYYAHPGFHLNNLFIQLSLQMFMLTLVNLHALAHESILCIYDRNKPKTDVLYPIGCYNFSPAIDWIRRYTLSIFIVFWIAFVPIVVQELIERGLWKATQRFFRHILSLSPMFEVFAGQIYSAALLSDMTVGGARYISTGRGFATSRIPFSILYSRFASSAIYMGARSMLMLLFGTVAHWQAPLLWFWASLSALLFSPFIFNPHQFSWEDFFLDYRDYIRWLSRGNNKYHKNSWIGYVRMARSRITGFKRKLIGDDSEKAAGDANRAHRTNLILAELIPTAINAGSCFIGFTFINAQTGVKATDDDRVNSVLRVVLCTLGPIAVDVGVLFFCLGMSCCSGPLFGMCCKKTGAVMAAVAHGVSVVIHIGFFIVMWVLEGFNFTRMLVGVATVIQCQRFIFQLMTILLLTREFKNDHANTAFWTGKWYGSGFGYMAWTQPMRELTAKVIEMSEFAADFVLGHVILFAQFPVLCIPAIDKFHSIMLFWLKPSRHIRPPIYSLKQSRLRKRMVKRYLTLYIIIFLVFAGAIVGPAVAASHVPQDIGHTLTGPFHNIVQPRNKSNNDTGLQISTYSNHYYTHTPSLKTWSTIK

CCC(C)CC(C)CCCCCCCCC(=O)NC1C[C@@H](O)[C@@H](O)NC(=O)C2CN(C[C@@H]2O)C(=O)[C@H]([C@H](O)CCNC(=O)[C@@H](N)CCCN)NC(=O)[C@H]([C@H](O)[C@@H](O)c2ccc(O)cc2)NC(=O)C2C[C@@H](O)CN2C(=O)[C@H]([C@@H](C)O)NC1=O (stereo partly specified)
MFC [1]: < 0.06 µg/mL | ED99.9 [2]: 0.375 mg/kg | Sterilized [3]: 20% | IC50 [4]: 3 nM | Dose [5]: > 200 mg/kg

CCC(C)CC(C)CCCCCCCCC(=O)NC1C[C@@H](O)[C@@H](OCCN)NC(=O)C2CN(C[C@@H]2O)C(=O)[C@H]([C@H](O)CCNC(=O)[C@@H](N)CN)NC(=O)[C@H]([C@H](O)[C@@H](O)c2ccc(O)cc2)NC(=O)C2C[C@@H](O)CN2C(=O)[C@H]([C@@H](C)O)NC1=O (stereo partly specified)
ED50 [6]: 0.07 mg/kg | MFC [1]: 1 µg/mL (≈ 0.847 µM) | ED99.9 [2]: 0.375 mg/kg | Sterilized [3]: 100% | IC50 [4]: 4 nM | Dose [5]: > 100 mg/kg

CCC(C)CC(C)CCCCCCCCC(=O)NC1C[C@@H](O)[C@@H](O)NC(=O)C2CN(C[C@@H]2O)C(=O)[C@H]([C@H](O)CCNC(C)=O)NC(=O)[C@H]([C@H](O)[C@@H](O)c2ccc(O)cc2)NC(=O)C2C[C@@H](O)CN2C(=O)[C@H]([C@@H](C)O)NC1=O (stereo partly specified)
MFC [1]: 2 µg/mL (≈ 1.83 µM) | ED99.9 [2]: 12 mg/kg | Sterilized [3]: 0% | IC50 [4]: 300 nM | Dose [5]: > 250 mg/kg

CCC(C)CC(C)CCCCCCCCC(=O)NC1C[C@@H](O)[C@@H](OCCN)NC(=O)C2CN(C[C@@H]2O)C(=O)[C@H]([C@H](O)CCNC(=O)[C@@H](N)CCN)NC(=O)[C@H]([C@H](O)[C@@H](O)c2ccc(O)cc2)NC(=O)C2C[C@@H](O)CN2C(=O)[C@H]([C@@H](C)O)NC1=O (stereo partly specified)
MFC [1]: 0.5 µg/mL (≈ 0.419 µM) | ED99.9 [2]: 0.09 mg/kg | Sterilized [3]: 0% | IC50 [4]: 6 nM | Dose [5]: 100 mg/kg

CCC(C)CC(C)CCCCCCCCC(=O)NC1C[C@@H](O)[C@@H](O)NC(=O)C2CN(C[C@@H]2O)C(=O)[C@H]([C@H](O)CCNC(=O)[C@@H](N)CCN)NC(=O)[C@H]([C@H](O)[C@@H](O)c2ccc(O)cc2)NC(=O)C2C[C@@H](O)CN2C(=O)[C@H]([C@@H](C)O)NC1=O (stereo partly specified)
MFC [1]: 0.25 µg/mL (≈ 0.217 µM) | ED99.9 [2]: 0.375 mg/kg | Sterilized [3]: 60% | IC50 [4]: 60 nM | Dose [5]: > 250 mg/kg

CCC(C)CC(C)CCCCCCCCC(=O)NC1C[C@@H](O)[C@@H](OCCN)NC(=O)C2CN(C[C@@H]2O)C(=O)[C@H]([C@H](O)CCN)NC(=O)[C@H]([C@H](O)[C@@H](O)c2ccc(O)cc2)NC(=O)C2C[C@@H](O)CN2C(=O)[C@H]([C@@H](C)O)NC1=O (stereo partly specified)
ED50 [6]: 0.03 mg/kg | MFC [1]: 0.125 µg/mL (≈ 0.114 µM) | MFC90 [7]: 1 µg/mL (≈ 0.914 µM) | ED99.9 [2]: 0.09 mg/kg | MFC90 [8]: 0.5 µg/mL (≈ 0.457 µM) | MFC90 [9]: 4 µg/mL (≈ 3.66 µM) | MFC90 [10]: 1 µg/mL (≈ 0.914 µM) | Sterilized [3]: 80% | MFC90 [11]: 32 µg/mL (≈ 29.2 µM) | MFC90 [12]: 0.5 µg/mL (≈ 0.457 µM) | MFC90 [13]: 0.5 µg/mL (≈ 0.457 µM) | IC50 [4]: 1 nM | MFC90 [14]: 0.5 µg/mL (≈ 0.457 µM) | MFC90 [15]: 0.5 µg/mL (≈ 0.457 µM) | Dose [5]: 30 mg/kg

CCC(C)CC(C)CCCCCCCCC(=O)NC1C[C@@H](O)[C@@H](O)NC(=O)C2CN(C[C@@H]2O)C(=O)[C@H]([C@H](O)CCNC(=O)[C@@H](N)CCCCN)NC(=O)[C@H]([C@H](O)[C@@H](O)c2ccc(O)cc2)NC(=O)C2C[C@@H](O)CN2C(=O)[C@H]([C@@H](C)O)NC1=O (stereo partly specified)
MFC [1]: < 0.06 µg/mL | ED99.9 [2]: 0.375 mg/kg | Sterilized [3]: 20% | IC50 [4]: 10 nM | Dose [5]: 150 mg/kg

CCC(C)CC(C)CCCCCCCCC(=O)NC1C[C@@H](O)[C@@H](O)NC(=O)C2CN(C[C@@H]2O)C(=O)[C@H]([C@H](O)CCNC(=O)CCCCCN)NC(=O)[C@H]([C@H](O)[C@@H](O)c2ccc(O)cc2)NC(=O)C2C[C@@H](O)CN2C(=O)[C@H]([C@@H](C)O)NC1=O (stereo partly specified)
MFC [1]: 0.5 µg/mL (≈ 0.429 µM) | ED99.9 [2]: >1.5 mg/kg | Sterilized [3]: 0% | IC50 [4]: 90 nM | Dose [5]: 250 mg/kg

Source: ChEMBL document CHEMBL1130502, “Lipopeptide antifungal agents: Amine conjugates of the semi-synthetic pneumocandins L-731,373 and L-733,560” (Bioorg Med Chem Lett, 1997)
